Publication PMC7156724, “Potent BRD4 inhibitor suppresses cancer cell-macrophage interaction” (Nature Communications, 2020)
Values joined by “and” are separate entries in the source; they are usually repeats but may differ in a detail not shown here. Equal entries are not always repeated.

Tests used:
[1] = test system: phosphorylated BRD4 and c-MYC; test: Western blot of p-BRD4, BRD4 and c-MYC in solid tumor cell lines; type: cell-based, human; details: 24 h
Protocol: Fig. 2 NHWD-870 inhibited BRD4 phosphorylation and c-MYC expression, and suppressed cell growth. a Representative western blot analysis of p-BRD4 (s484/488), BRD4, c-MYC, and GAPDH after treatment of MDA-MB231, SUM159, A2780 ES-2, and H526 cells with JQ-1 or NHWD-870 at the indicated concentrations for 24 h. GAPDH served as the loading control. Selected from three independent experiments. b MTT assays of H526, A2780, ES-2, and MDA-MB231 cells treated with JQ-1 or NHWD-870 at the indicated concentrations for 5 days. Data are presented as mean ± SEM from three independent experiments. c, d Clonogenic assays of H526, A2780, ES-2 and MDA-MB231 cells treated with 250 nM JQ-1 or NHWD-870 for 5 days. Shown are representative images (c) and quantification of colonies (d). […] Shown are representative images (e) and quantification of relative colony sizes (f). Scale bar, 50 μm. Data are presented as mean ± SEM from five independent experiments. p values were calculated using two-tailed, unpaired t tests in this figure. **p < 0.01; ***p < 0.001. Source data are provided as a Source Data file. […]
4. Protein extraction and w estern blot anal ysis. Freshly dissected unfixed tissue was homogenized in lysis buffer. The lysates were centrifuged at 13,000g for 10 minutes at 4°C. Supernatants were collected and determined with a Bradford Protein Assay kit (Bio-Rad, Hercules, CA). The cell lysates were subjected to SDS-PAGE followed by immunoblotting (Immobilon P; Millipore, Milford, MA) with specific antibodies followed by detection using an enhanced chemilumine scence kit (Amersham Life Science, Arlington Heights, IL). […]

[2] = test system: TMD8 large B cell lymphoma; test: TMD8 large B cell lymphoma model tumor growth; type: in vivo, mouse; details: for Tumor volume: n=6, individual animals
From the text: PO, oral administration; QD, once daily; BID, twice daily. b–d Tumor growth curves for A2780 ovarian tumor (n = 5) (b), TMD8 large B cell lymphoma (n = 6) (c), and B16F10 melanoma (n = 5) (d) bearing mice treated with the indicated compounds once daily for 11-21 days. e, f Tumor growth curves for A375 melanoma (n = 6) (e), and patient-derived xenograft (PDX) of melanoma (n = 5) (f) bearing mice treated with the indicated compounds once daily (5 days on, 2 days off) for 21 days. For d–f, NHWD-870 used is NHWD-870-HCl synthesized using Suzuki coupling route. Data are presented as mean ± SEM in (a, b, d, f) and mean + SEM in (c, e). p values were calculated using two-tailed, unpaired t tests. *p < 0.05; **p < 0.01; ***p < 0.001. Source data are provided as a Source Data file.
4–6 weeks old female BALB/c nude mice were used for most experiments, with the exception of 6–8 weeks old female C57BL/6 mice were used for B16F10 experiments, and 6–8 weeks old male BALB/c nude mice and SD rats were used for pharmacokinetic experiments. All animals were purchased from Shanghai SIPPR-Bk Lab Animal Co., Ltd. All animals were housed under a regimen of 12 h light/12 h dark cycles and specific pathogen-free conditions. 5×10^6 NCI-H526, ES-2, MDA-MB231, A2780, A375, B16F10, and TMD-8 cells (0.1 ml) were injected subcutaneously into female nude mice. The melanoma patient-derived xenograft model was derived from a human melanoma sample (BRAF, NARS and NF1 wild type, and p53 mutant) removed from a patient in Xiangya Hospital. Surgically removed tumor fragments were implanted subcutaneously into female NSG mice. When the tumors grew to ~1000 mm^3, they were harvested and cryopreserved or immediately re-implanted for expansion or experiments. Mouse body weight and tumor sizes were measured every 3 days. Once the tumors grew to 150–200 mm^3, mice were treated with the compounds as described in the Figures. 1 × 10^6 A2780 cells (1 ml) were injected into the abdominal cavity of nude mice. Ascitic volume and tumor weight were measured by an electronic balance. All the procedures were evaluated and approved by the Institutional Animal Care and Use Committee of Central South University and Yale University.

**Q.** `Cc1nnn(C)c1-c1cnc2c3c4cnn(C)c4ccc3n([C@H](c3ccccc3)C3CCOCC3)c2c1` [NHWD-870] was tested. Which “effect on phosphorylated BRD4 and c-MYC (western blot)” value ([1]; 10 nM) did it give?
**A.** depletion of phosphorylated BRD4 and c-MYC

**Q.** And the “effect on the stability of BRD4 (western blot)” value [1]?
**A.** minimal effects on the stability of BRD4

**Q.** What about the Tumor volume ([2]; Fig.3c TMD-8, 1.5mg/kg p.o. QD x 21D, day 0) of the same molecule?
**A.** 214.469 mm^3 and 165.444 mm^3 and 94.318 mm^3 and 104.496 mm^3 and 146.158 mm^3 and 140.975 mm^3

**Q.** And the Tumor volume ([2]; Fig.3c TMD-8, 1.5mg/kg p.o. QD x 21D, day 3)?
**A.** 338.876 mm^3 and 252.047 mm^3 and 100.523 mm^3 and 149.534 mm^3 and 223.518 mm^3 and 132.449 mm^3

**Q.** What about the Tumor volume ([2]; Fig.3c TMD-8, 1.5mg/kg p.o. QD x 21D, day 7) of the same molecule?
**A.** 459.258 mm^3 and 449.651 mm^3 and 146.864 mm^3 and 132.276 mm^3 and 263.192 mm^3 and 174.278 mm^3

**Q.** And the Tumor volume ([2]; Fig.3c TMD-8, 1.5mg/kg p.o. QD x 21D, day 10)?
**A.** 490.697 mm^3 and 432.678 mm^3 and 235.012 mm^3 and 190.412 mm^3 and 150.967 mm^3 and 163.029 mm^3

**Q.** And the Tumor volume ([2]; Fig.3c TMD-8, 1.5mg/kg p.o. QD x 21D, day 14)?
**A.** 640.246 mm^3 and 434.37 mm^3 and 213.016 mm^3 and 174.551 mm^3 and 71.2181 mm^3 and 175.498 mm^3

**Q.** And the Tumor volume ([2]; Fig.3c TMD-8, 1.5mg/kg p.o. QD x 21D, day 17)?
**A.** 730.308 mm^3 and 597.229 mm^3 and 374.112 mm^3 and 196.792 mm^3 and 127.555 mm^3 and 127.945 mm^3

**Q.** And the Tumor volume ([2]; Fig.3c TMD-8, 1.5mg/kg p.o. QD x 21D, day 21)?
**A.** 1151.12 mm^3 and 1193.19 mm^3 and 830.854 mm^3 and 339.119 mm^3 and 375.477 mm^3 and 217.147 mm^3

**Q.** And the Tumor volume ([2]; Fig.3c TMD-8, 3mg/kg p.o. QD x 21D, day 0)?
**A.** 135.749 mm^3 and 160.378 mm^3 and 111.097 mm^3 and 215.602 mm^3 and 96.5 mm^3 and 162.39 mm^3

**Q.** What about the Tumor volume ([2]; Fig.3c TMD-8, 3mg/kg p.o. QD x 21D, day 3) of the same molecule?
**A.** 210.016 mm^3 and 166.954 mm^3 and 177.118 mm^3 and 367.777 mm^3 and 150.727 mm^3 and 208.299 mm^3

**Q.** What about the Tumor volume ([2]; Fig.3c TMD-8, 3mg/kg p.o. QD x 21D, day 7) of the same molecule?
**A.** 347.833 mm^3 and 254.452 mm^3 and 292.586 mm^3 and 297.998 mm^3 and 182.149 mm^3 and 258.854 mm^3

**Q.** What about the Tumor volume ([2]; Fig.3c TMD-8, 3mg/kg p.o. QD x 21D, day 10) of the same molecule?
**A.** 278.167 mm^3 and 325.57 mm^3 and 336.135 mm^3 and 344.695 mm^3 and 159.095 mm^3 and 292.996 mm^3

**Q.** And the Tumor volume ([2]; Fig.3c TMD-8, 3mg/kg p.o. QD x 21D, day 14)?
**A.** 177.492 mm^3 and 209.22 mm^3 and 327.654 mm^3 and 243.833 mm^3 and 100.203 mm^3 and 228.258 mm^3

**Q.** What about the Tumor volume ([2]; Fig.3c TMD-8, 3mg/kg p.o. QD x 21D, day 17) of the same molecule?
**A.** 203.37 mm^3 and 180.739 mm^3 and 317.134 mm^3 and 320.512 mm^3 and 84.6294 mm^3 and 268.501 mm^3

**Q.** What about the Tumor volume ([2]; Fig.3c TMD-8, 3mg/kg p.o. QD x 21D, day 21) of the same molecule?
**A.** 566.866 mm^3 and 363.185 mm^3 and 475.409 mm^3 and 503.514 mm^3 and 313.1 mm^3 and 324.211 mm^3

**Q.** What about the “effect on tumor growth” value ([2]; TMD8 large B cell lymphoma model, compared with Ibrutinib) of the same molecule?
**A.** stronger tumor-suppressive effects
